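Dose response: 5 concentrations. Exposure: 48 h. Format: 96-well plates. Endpoint: linear interpolation; highest concentration if not reached. The concentration for full growth arrest is given as TGI.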
Experiments:
Assay in all cases: growth of human tumour cells (NCI), 48 h
A549 NSCLC = tested on: A549 NSCLC
LOX IMVI melanoma = tested on: LOX IMVI melanoma
K-562 leukemia = tested on: K-562 leukemia
SF-295 CNS = tested on: SF-295 CNS
UO-31 renal = tested on: UO-31 renal
OVCAR-4 ovarian = tested on: OVCAR-4 ovarian
SNB-19 CNS = tested on: SNB-19 CNS
RPMI-8226 leukemia = tested on: RPMI-8226 leukemia
EKVX NSCLC = tested on: EKVX NSCLC
HCT-116 colon = tested on: HCT-116 colon
NCI/ADR-RES ovarian = tested on: NCI/ADR-RES ovarian
DU-145 prostate = tested on: DU-145 prostate
TK-10 renal = tested on: TK-10 renal
SW-620 colon = tested on: SW-620 colon
U251 CNS = tested on: U251 CNS
NCI-H522 lung = tested on: NCI-H522 lung
OVCAR-8 ovarian = tested on: OVCAR-8 ovarian
NCI-H460 lung = tested on: NCI-H460 lung
ACHN renal = tested on: ACHN renal
A498 renal = tested on: A498 renal
HT29 colon = tested on: HT29 colon
SK-OV-3 ovarian = tested on: SK-OV-3 ovarian
HOP-92 NSCLC = tested on: HOP-92 NSCLC
MCF7 breast = tested on: MCF7 breast
NCI-H23 lung = tested on: NCI-H23 lung
COLO 205 colon = tested on: COLO 205 colon
HS 578T breast = tested on: HS 578T breast
MALME-3M melanoma = tested on: MALME-3M melanoma
IGROV1 ovarian = tested on: IGROV1 ovarian
UACC-257 melanoma = tested on: UACC-257 melanoma
M14 melanoma = tested on: M14 melanoma
HOP-62 NSCLC = tested on: HOP-62 NSCLC
SK-MEL-28 melanoma = tested on: SK-MEL-28 melanoma
SF-268 CNS = tested on: SF-268 CNS
SR leukemia = tested on: SR leukemia
MDA-MB-435 = tested on: MDA-MB-435
HL-60(TB) leukemia = tested on: HL-60(TB) leukemia
BT-549 breast = tested on: BT-549 breast
SK-MEL-2 melanoma = tested on: SK-MEL-2 melanoma
MDA-MB-231 breast = tested on: MDA-MB-231 breast
OVCAR-3 ovarian = tested on: OVCAR-3 ovarian
T-47D breast = tested on: T-47D breast
UACC-62 melanoma = tested on: UACC-62 melanoma
CAKI-1 renal = tested on: CAKI-1 renal
PC-3 prostate = tested on: PC-3 prostate
SK-MEL-5 melanoma = tested on: SK-MEL-5 melanoma
HCT-15 colon = tested on: HCT-15 colon
SF-539 CNS = tested on: SF-539 CNS
KM12 colon = tested on: KM12 colon
SN12C renal = tested on: SN12C renal
MOLT-4 leukemia = tested on: MOLT-4 leukemia
786-0 renal = tested on: 786-0 renal
MDA-N = tested on: MDA-N
OVCAR-5 ovarian = tested on: OVCAR-5 ovarian
CCRF-CEM leukemia = tested on: CCRF-CEM leukemia
RXF 393 renal = tested on: RXF 393 renal
HCC-2998 colon = tested on: HCC-2998 colon
NCI-H226 lung = tested on: NCI-H226 lung
SNB-75 CNS = tested on: SNB-75 CNS

N#Cc1cc(N(CCCl)CCCl)c([N+](=O)[O-])cc1[N+](=O)[O-]
TGI (A549 NSCLC): > 100 µM | TGI (LOX IMVI melanoma): > 100 µM | TGI (K-562 leukemia): > 100 µM | TGI (SF-295 CNS): > 100 µM | TGI (UO-31 renal): > 100 µM | TGI (OVCAR-4 ovarian): > 100 µM | TGI (SNB-19 CNS): > 100 µM | TGI (RPMI-8226 leukemia): > 100 µM | TGI (EKVX NSCLC): > 100 µM | TGI (HCT-116 colon): > 100 µM | TGI (NCI/ADR-RES ovarian): > 100 µM | TGI (DU-145 prostate): > 100 µM | TGI (TK-10 renal): > 100 µM | TGI (SW-620 colon): > 100 µM | TGI (U251 CNS): > 100 µM | TGI (NCI-H522 lung): > 100 µM | TGI (OVCAR-8 ovarian): > 100 µM | TGI (NCI-H460 lung): > 100 µM | TGI (ACHN renal): > 100 µM | TGI (A498 renal): > 100 µM | TGI (HT29 colon): > 100 µM | TGI (SK-OV-3 ovarian): > 100 µM | TGI (HOP-92 NSCLC): > 100 µM | TGI (MCF7 breast): > 100 µM | TGI (NCI-H23 lung): > 100 µM | TGI (COLO 205 colon): > 100 µM | TGI (HS 578T breast): > 100 µM | TGI (MALME-3M melanoma): > 100 µM | TGI (IGROV1 ovarian): > 100 µM | TGI (UACC-257 melanoma): > 100 µM | TGI (M14 melanoma): > 100 µM | TGI (HOP-62 NSCLC): > 100 µM | TGI (SK-MEL-28 melanoma): > 100 µM | TGI (SF-268 CNS): > 100 µM | TGI (SR leukemia): 35.8 µM | TGI (MDA-MB-435): > 100 µM | TGI (HL-60(TB) leukemia): 80.9 µM | TGI (BT-549 breast): > 100 µM | TGI (SK-MEL-2 melanoma): > 100 µM | TGI (MDA-MB-231 breast): > 100 µM | TGI (OVCAR-3 ovarian): > 100 µM | TGI (T-47D breast): 57.2 µM | TGI (UACC-62 melanoma): > 100 µM | TGI (CAKI-1 renal): 69.8 µM | TGI (PC-3 prostate): > 100 µM | TGI (SK-MEL-5 melanoma): > 100 µM | TGI (HCT-15 colon): > 100 µM | TGI (SF-539 CNS): > 100 µM | TGI (KM12 colon): > 100 µM | TGI (SN12C renal): > 100 µM | TGI (MOLT-4 leukemia): > 100 µM | TGI (786-0 renal): > 100 µM | TGI (MDA-N): > 100 µM | TGI (OVCAR-5 ovarian): > 100 µM | TGI (CCRF-CEM leukemia): 98.2 µM

CC1=CC(=O)[C@@H](O)[C@]2(C)[C@H]3[C@@]4(O)OC[C@@]35[C@@H](C[C@@H]12)OC(=O)C(OC(=O)CC1=CCCC1)[C@H]5[C@@H](C)[C@H]4O (some centres undefined)
TGI (A549 NSCLC): 8.99 µM | TGI (LOX IMVI melanoma): 0.0653 µM | TGI (K-562 leukemia): > 100 µM | TGI (RXF 393 renal): 0.234 µM | TGI (SF-295 CNS): 0.448 µM | TGI (UO-31 renal): 0.449 µM | TGI (OVCAR-4 ovarian): 0.284 µM | TGI (RPMI-8226 leukemia): 0.039 µM | TGI (EKVX NSCLC): 1.45 µM | TGI (HCT-116 colon): 1.42 µM | TGI (NCI/ADR-RES ovarian): 1.21 µM | TGI (HCC-2998 colon): 0.232 µM | TGI (DU-145 prostate): 4.66 µM | TGI (TK-10 renal): 0.948 µM | TGI (SW-620 colon): > 29.5 µM | TGI (NCI-H522 lung): 0.0733 µM | TGI (OVCAR-8 ovarian): 0.139 µM | TGI (NCI-H460 lung): 0.133 µM | TGI (ACHN renal): 0.35 µM | TGI (HT29 colon): 0.203 µM | TGI (SK-OV-3 ovarian): 5.04 µM | TGI (HOP-92 NSCLC): 1.15 µM | TGI (MCF7 breast): 0.656 µM | TGI (NCI-H23 lung): 0.152 µM | TGI (COLO 205 colon): 0.724 µM | TGI (HS 578T breast): 0.136 µM | TGI (MALME-3M melanoma): 0.0666 µM | TGI (IGROV1 ovarian): 0.112 µM | TGI (UACC-257 melanoma): 0.217 µM | TGI (M14 melanoma): 0.103 µM | TGI (HOP-62 NSCLC): 0.108 µM | TGI (SK-MEL-28 melanoma): 1.25 µM | TGI (SF-268 CNS): 0.132 µM | TGI (SR leukemia): > 100 µM | TGI (MDA-MB-435): 0.443 µM | TGI (HL-60(TB) leukemia): 0.237 µM | TGI (BT-549 breast): 0.198 µM | TGI (SK-MEL-2 melanoma): 0.237 µM | TGI (MDA-MB-231 breast): 0.372 µM | TGI (T-47D breast): > 23.2 µM | TGI (UACC-62 melanoma): 0.21 µM | TGI (CAKI-1 renal): 1.63 µM | TGI (PC-3 prostate): 0.733 µM | TGI (SK-MEL-5 melanoma): 0.0713 µM | TGI (NCI-H226 lung): 0.0632 µM | TGI (SF-539 CNS): 0.0676 µM | TGI (KM12 colon): 0.166 µM | TGI (SN12C renal): 0.435 µM | TGI (MOLT-4 leukemia): 2.53 µM | TGI (SNB-75 CNS): 0.155 µM | TGI (786-0 renal): 0.311 µM | TGI (MDA-N): 0.163 µM | TGI (OVCAR-5 ovarian): 0.687 µM | TGI (CCRF-CEM leukemia): 0.136 µM

Reference: PubChem BioAssay (NCI)
